According to patent publication US6395750B1, “Drugs for the treatment of malignant tumors” (Active Biotech AB, priority 1999, dated 2002):
Marks after values point to notes of the source that are not given here.

Experiments:
[1] = test system: Dunning R-3327 AT-1 tumour; assay: Primary screen: tumour growth inhibition, Dunning R-3327 AT-1 prostatic cancer transplanted sc; assay type: in vivo, rat
Experimental: The compounds of general formula (I) were assayed for their capacity to inhibit of growth of the Dunning R-3327 AT-1 tumour, a prostatic rat cancer.
R-3327 AT-1 Prostatic cancer in man is an angiogenic type of solid tumour. The Dunning R-3327 AT-1 is a prostatic cancer of the rat and suits as an experimental animal model for this disease. The AT-1 tumour is serially transplanted subcutaneously (sc) on syngeneic rats of the Copenhagen strain. Small pieces of the tumour are transplanted sc to recipient rats and treatment of the tumour bearing rats start when the tumours are easily measurable approximately on day 10 after transplantation. Doses of the compounds are given either orally or parentally 5 days a week for four weeks. The tumour growth and body weight gain are monitored during the experimental time.

[2] = test system: Dunning R-3327 rat prostatic cancers; settings: literature report; cited from earlier work
[3] = beagle dog, literature; cited from earlier work
[4] = patients with renal cell carcinoma; cited from earlier work
[5] = Beagle Pain Syndrome, pro-inflammatory reaction (ESR, AP); assay type: in vivo, beagle dog; settings: beagle dogs, five consecutive days
[6] = 8 mg/kg ip, treatment given on Day 11

Cc1cccc2c1c(N)c(C(=O)N(C)c1ccccc1)c(=O)n2C [Compound D, N-methyl-N-phenyl-4-amino-1,2-dihydro-1,5-dimethyl-2-oxo-quinoline-3-carboxamide]
% Tumour Weight Reduction ([1]; 2 mg/kg sc): 38%

CN(C(=O)c1c(O)c2c(Cl)cccc2n(C)c1=O)c1ccc(Cl)cc1 [B, N-methyl-N-(4-chloro-phenyl)-1,2-dihydro-4-hydroxy-5-chloro-1-methyl-2-oxo-quinoline-3-carboxamide]
% Tumour Weight Reduction ([1]; 2 mg/kg po): 28%

CN(C(=O)c1c(O)c2ccccc2n(C)c1=O)c1ccccc1 [Compound E, N-methyl-N-phenyl-1,2-dihydro-4-hydroxy-1-methyl-2-oxo-quinoline-3-carboxamide]
antitumour effects [2]: antitumour effects | % Tumour Weight Reduction ([1]; 4 mg/kg sc): 30% | inhibition of growth of the Dunning R-3327 AT-1 tumour ([1]; 4 mg/kg, positive treatment control): 30% | induction of beagle pain syndrome (fever, myalgia, arthralgia, arteritis) [3]: induces the beagle pain syndrome | patients withdrawn or having dose reductions due to adverse events [4]: 40%

CC[C@]1(O)C[C@@H]2CN(CCc3c([nH]c4ccccc34)[C@@](C(=O)OC)(c3cc4c(cc3OC)N(C)[C@H]3[C@@](O)(C(=O)OC)[C@H](OC(C)=O)[C@]5(CC)C=CCN6CC[C@]43[C@@H]65)C2)C1 [vinblastine]
% Tumour Weight Reduction ([1]; 1 mg/kg iv, treatment given on Day 11): 0% | % Tumour Weight Reduction ([1]; 4 mg/kg iv, treatment given on Day 11): toxic

CCN(C(=O)c1c(O)c2c(Cl)cccc2n(C)c1=O)c1ccccc1 [Compound A, N-ethyl-N-phenyl-1,2-dihydro-4-hydroxy-5-chloro-1-methyl-2-oxo-quinoline-3-carboxamide]
% Tumour Weight Reduction ([1]; 2 mg/kg sc): 37% | AP percentage change (Day 8 - baseline) ([5]; 1 mg/kg p. o.): 25% | ESR percentage change (Day 8 - baseline) ([5]; 1 mg/kg p. o.): 177% | AP percentage change (Day 8 - baseline) ([5]; 10 mg/kg p. o.): 109% | ESR percentage change (Day 8 - baseline) ([5]; 10 mg/kg p. o.): 515%

COc1cccc2c1C(=O)c1c(O)c3c(c(O)c1C2=O)C[C@@](O)(C(=O)CO)C[C@@H]3O[C@H]1C[C@H](N)[C@H](O)[C@H](C)O1 [doxorubicin]
% Tumour Weight Reduction ([1]; 4 mg/kg ip, treatment given on Day 11): 0% | % Tumour Weight Reduction [1, 6]: 31^b) % | body weight effect [1, 6]: ^b)8 mg/kg of doxorubicin caused a body weight loss

CSc1cccc2c1c(O)c(C(=O)N(C)c1ccc(F)cc1F)c(=O)n2C [C, N-methyl-N-(2,4-difluoro-phenyl)-1,2-dihydro-4-hydroxy-5-thiomethyl-1-methyl-2-oxo-quinoline-3-carboxamide]
% Tumour Weight Reduction ([1]; 2 mg/kg po): 39%
